Paper PMC7286362 (Journal of medicinal chemistry, 2020)
Like-named read-outs stand apart in the source and are kept apart here.

Tests used:
[1] = biological target: T1, PRMT6 (Homo sapiens, UniProt Q96LA8); assay type: cell-based; details: for inhibition of H3R2me2a in cells: PRMT6-transfected HEK293T cells, 20 h
[2] = tested on: MCF-7 cells; assay: Cell viability assay; assay type: cell-based; details: up to 20 μM, 3 days, CCK-8
[3] = biological target: T2, endogenously expressed PRMT4 (Homo sapiens, UniProt Q86X55); assay: Cellular PRMT4 assay: BAF155-Rme2a levels in MCF7 cells; assay type: cell-based; details: 2 days, concentrations up to 20 μM
T2 sequence (Q86X55 1-608): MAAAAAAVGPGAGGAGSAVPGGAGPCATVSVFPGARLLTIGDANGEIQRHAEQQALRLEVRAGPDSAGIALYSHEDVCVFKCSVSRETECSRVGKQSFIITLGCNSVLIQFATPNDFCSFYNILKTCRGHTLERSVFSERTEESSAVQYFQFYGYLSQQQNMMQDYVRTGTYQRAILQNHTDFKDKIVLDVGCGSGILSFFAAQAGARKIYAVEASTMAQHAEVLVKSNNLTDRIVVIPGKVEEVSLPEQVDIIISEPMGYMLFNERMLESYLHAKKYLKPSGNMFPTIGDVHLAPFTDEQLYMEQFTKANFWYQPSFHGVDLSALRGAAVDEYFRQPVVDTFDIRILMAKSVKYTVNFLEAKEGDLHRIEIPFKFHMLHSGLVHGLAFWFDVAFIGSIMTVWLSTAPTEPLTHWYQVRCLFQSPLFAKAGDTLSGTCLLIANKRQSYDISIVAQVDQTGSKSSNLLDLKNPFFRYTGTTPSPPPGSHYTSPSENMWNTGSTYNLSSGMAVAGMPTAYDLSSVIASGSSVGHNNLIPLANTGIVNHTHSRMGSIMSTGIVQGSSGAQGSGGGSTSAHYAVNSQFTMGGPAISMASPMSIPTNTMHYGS

[4] = tested on: PNT2 (a nontumorigenic prostate cell line); assay: Cell viability assay; assay type: cell-based; details: up to 20 μM, 3 days, CCK-8
[5] = biological target: T1, PRMT6; assay: Mass spectrometry analysis of covalent binding, PRMT6; details: 15 μM protein, 300 μM compound, 1 h at rt
[6] = biological target: T3, PRMT3 (Homo sapiens, UniProt O60678); assay type: cell-based; details: HEK293T cells, 20 h, concentrations up to 20 μM
T3 sequence (O60678 whole entry, species assumed): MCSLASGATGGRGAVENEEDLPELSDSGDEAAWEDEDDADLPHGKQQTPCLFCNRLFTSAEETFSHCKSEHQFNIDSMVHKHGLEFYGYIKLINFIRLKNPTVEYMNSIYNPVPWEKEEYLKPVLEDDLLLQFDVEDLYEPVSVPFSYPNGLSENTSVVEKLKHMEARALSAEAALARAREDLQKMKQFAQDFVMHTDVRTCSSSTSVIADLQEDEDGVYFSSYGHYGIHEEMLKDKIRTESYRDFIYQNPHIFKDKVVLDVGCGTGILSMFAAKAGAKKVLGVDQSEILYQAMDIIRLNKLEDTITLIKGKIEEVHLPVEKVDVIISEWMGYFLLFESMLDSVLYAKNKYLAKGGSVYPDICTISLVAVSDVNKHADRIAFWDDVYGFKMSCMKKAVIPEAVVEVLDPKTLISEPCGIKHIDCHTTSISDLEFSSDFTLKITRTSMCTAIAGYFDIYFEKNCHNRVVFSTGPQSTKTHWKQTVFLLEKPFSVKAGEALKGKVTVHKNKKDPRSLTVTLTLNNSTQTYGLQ

[7] = tested on: HEK293T cells; assay: Cell viability assay; assay type: cell-based; details: up to 20 μM, 3 days, CCK-8
[8] = biological target: PRMT8 (Homo sapiens, UniProt Q9NR22); assay: Mass spectrometry analysis of covalent binding, PRMT8; details: 15 μM protein, 300 μM compound, 1 h at rt
PRMT8, sequence (Q9NR22 whole entry, species assumed): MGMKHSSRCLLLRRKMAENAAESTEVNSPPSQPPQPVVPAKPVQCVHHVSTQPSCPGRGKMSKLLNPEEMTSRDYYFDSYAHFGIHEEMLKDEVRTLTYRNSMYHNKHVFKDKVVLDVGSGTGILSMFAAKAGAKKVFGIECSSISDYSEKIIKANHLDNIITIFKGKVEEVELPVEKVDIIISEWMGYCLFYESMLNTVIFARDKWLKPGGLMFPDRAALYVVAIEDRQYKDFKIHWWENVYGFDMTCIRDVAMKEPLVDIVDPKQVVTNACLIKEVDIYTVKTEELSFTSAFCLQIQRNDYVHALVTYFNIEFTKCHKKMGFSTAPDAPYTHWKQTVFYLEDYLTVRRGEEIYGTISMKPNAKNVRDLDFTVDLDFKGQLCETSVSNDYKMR

[9] = biological target: T1, PRMT6; assay: KI and kinact determination from time-dependent IC50 values; assay type: biochemical; details: for time dependence of IC50 against PRMT6: preincubation 1 to 30 min, SPA
[10] = biological target: PRMT1 (Homo sapiens, UniProt Q99873); assay: Mass spectrometry analysis of covalent binding, PRMT1; details: 15 μM protein, 300 μM compound, 1 h at rt
PRMT1, sequence (Q99873 whole entry, species assumed): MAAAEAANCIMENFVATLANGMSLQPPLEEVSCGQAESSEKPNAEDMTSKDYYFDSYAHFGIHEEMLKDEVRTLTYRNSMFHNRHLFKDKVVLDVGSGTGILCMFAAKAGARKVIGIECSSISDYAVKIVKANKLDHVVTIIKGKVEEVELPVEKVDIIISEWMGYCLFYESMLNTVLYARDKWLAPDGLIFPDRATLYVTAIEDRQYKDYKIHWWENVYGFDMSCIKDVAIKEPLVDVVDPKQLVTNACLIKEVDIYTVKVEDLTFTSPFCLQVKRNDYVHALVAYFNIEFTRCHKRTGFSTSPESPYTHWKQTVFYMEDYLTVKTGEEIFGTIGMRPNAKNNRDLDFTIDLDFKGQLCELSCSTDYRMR

[11] = biological target: T3, PRMT3; assay: Mass spectrometry analysis of covalent binding, PRMT3; details: 15 μM protein, 300 μM compound, 1 h at rt
[12] = tested on: type I PRMTs; assay: Methyltransferase selectivity assay, type I PRMTs; assay type: biochemical
[13] = biological target: T4, PRMT4 (Homo sapiens, UniProt Q86X55); assay: Mass spectrometry analysis of covalent binding, PRMT4; details: 15 μM protein, 300 μM compound, 1 h at rt
T4 sequence (Q86X55 1-608): T2 sequence (Q86X55 1-608)

[14] = biological target: DNMT3A/3L (Homo sapiens, UniProt Q9Y6K1); assay: Methyltransferase selectivity assay, DNMT3A/3L; assay type: biochemical; details: read-out: inhibition of DNMT3A/3L
DNMT3A/3L, sequence (Q9Y6K1 whole entry, looked up, species assumed): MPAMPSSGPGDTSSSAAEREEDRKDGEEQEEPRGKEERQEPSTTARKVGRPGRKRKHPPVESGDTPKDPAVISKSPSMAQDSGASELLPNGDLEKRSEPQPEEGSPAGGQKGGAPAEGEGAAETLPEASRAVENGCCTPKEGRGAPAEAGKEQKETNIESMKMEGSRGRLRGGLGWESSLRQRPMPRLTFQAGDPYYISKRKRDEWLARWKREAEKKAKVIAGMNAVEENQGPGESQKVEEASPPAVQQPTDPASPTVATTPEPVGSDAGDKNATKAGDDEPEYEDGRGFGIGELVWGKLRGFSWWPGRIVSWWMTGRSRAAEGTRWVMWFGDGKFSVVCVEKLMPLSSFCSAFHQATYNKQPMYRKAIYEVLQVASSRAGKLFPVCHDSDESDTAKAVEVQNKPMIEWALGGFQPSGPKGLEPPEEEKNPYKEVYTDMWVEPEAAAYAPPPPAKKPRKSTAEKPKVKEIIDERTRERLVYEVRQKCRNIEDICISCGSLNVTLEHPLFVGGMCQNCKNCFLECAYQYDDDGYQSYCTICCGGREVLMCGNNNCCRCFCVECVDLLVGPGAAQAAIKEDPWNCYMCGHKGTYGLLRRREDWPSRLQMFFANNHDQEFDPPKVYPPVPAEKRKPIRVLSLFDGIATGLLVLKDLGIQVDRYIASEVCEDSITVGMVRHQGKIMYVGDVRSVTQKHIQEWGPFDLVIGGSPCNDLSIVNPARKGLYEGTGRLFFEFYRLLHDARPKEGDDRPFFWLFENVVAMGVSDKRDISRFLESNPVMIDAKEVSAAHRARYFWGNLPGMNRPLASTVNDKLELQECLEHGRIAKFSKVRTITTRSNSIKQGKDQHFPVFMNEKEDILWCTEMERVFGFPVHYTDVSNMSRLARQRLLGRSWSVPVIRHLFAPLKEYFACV
DNMT3A/3L, sequence (Q9UJW3 whole entry partner, species assumed): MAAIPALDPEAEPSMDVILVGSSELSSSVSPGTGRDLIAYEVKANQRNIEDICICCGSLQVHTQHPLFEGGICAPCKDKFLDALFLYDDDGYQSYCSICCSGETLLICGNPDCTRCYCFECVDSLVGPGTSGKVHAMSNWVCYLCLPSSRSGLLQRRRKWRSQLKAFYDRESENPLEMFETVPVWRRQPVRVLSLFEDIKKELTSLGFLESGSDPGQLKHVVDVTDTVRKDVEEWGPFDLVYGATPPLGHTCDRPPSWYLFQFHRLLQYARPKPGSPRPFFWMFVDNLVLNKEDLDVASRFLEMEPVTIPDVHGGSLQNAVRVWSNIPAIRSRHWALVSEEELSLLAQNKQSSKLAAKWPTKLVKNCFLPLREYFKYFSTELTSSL

[15] = tested on: PKMTs, DNMTs, and type II, III PRMTs; assay: Methyltransferase selectivity assay, PKMTs, DNMTs and type II, III PRMTs; assay type: biochemical; details: at 10 μM
[16] = biological target: T1, PRMT6; assay: Scintillation proximity assay; assay type: biochemical; details: SPA, 1 h preincubation

T1 sequence (Q96LA8 whole entry): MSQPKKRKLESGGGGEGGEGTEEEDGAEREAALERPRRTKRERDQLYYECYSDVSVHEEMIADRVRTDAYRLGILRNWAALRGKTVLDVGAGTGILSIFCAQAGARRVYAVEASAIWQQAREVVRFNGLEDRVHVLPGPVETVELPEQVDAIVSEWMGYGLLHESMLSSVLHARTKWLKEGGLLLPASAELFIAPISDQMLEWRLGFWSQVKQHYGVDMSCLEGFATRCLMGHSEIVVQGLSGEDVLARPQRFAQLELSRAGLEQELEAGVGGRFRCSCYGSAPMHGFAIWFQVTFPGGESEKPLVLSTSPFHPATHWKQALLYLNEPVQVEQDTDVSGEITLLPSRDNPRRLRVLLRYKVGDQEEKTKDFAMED

Structure (SMILES) | inhibition of H3R2me2a in cells ([1]; concentrations up to 10 μM) | cytotoxicity in MCF-7 cells [2] | reduction of BAF155-Rme2a levels in cells [3] | cytotoxicity in PNT2 cells [4] | covalent modification of PRMT6 (MS adduct) [5] | reduction of PRMT3-dependent H4R3me2a in cells [6] | cytotoxicity in HEK293T cells [7] | time dependence of IC50 against PRMT6 [9] | inhibition of type I PRMTs ([12]; at 10 μM) [%] | inhibition of type I PRMTs ([12]; at 50 μM) [%] | further results
C=CC(=O)Nc1cccc(-c2c[nH]cc2CN(C)CCO)c1 [Compound 7, N-(3-(4-(((2-Hydroxyethyl)(methyl)amino)methyl)-1H-pyrrol-3-yl)phenyl)acrylamide] | did not significantly inhibit H3R2me2a | not cytotoxic | did not reduce | not cytotoxic | neither compound 5 nor compound 7 could modify PRMT6 in a detected level | did not significantly reduce this mark | not cytotoxic |  |  |  | 
C=CC(=O)Nc1cccc(-c2c[nH]cc2CN(C)CCN)c1 [Compound 4, N-(3-(4-(((2-Aminoethyl)(methyl)amino)methyl)-1H-pyrrol-3-yl)-phenyl)acrylamide] |  | not cytotoxic | did not reduce | not cytotoxic | adduct with mass equal to PRMT6 plus compound 4, with no detectable unmodified PRMT6 | did not significantly reduce this mark | not cytotoxic | time-dependent potencies | > 90 | > 50 | selectivity for PRMT6 over PRMT1 in cells ([1]; from cellular assays): ~ 4 fold; selectivity for PRMT6 over PRMT4 in cells ([1]; from cellular assays): > 20 fold; covalent modification of PRMT8 (MS adduct) [8]: no adducts with other type I PRMTs could be detected; kinact/KI [9]: 83000 M⁻¹ s⁻¹; covalent modification of PRMT1 (MS adduct) [10]: no adducts with other type I PRMTs could be detected; covalent modification of PRMT3 (MS adduct) [11]: no adducts with other type I PRMTs could be detected; covalent modification of PRMT4 (MS adduct) [13]: no adducts with other type I PRMTs could be detected; inhibition at 50 µM [14]: > 50%; inhibition of PKMTs, DNMTs, and type II, III PRMTs [15]: did not significantly inhibit
CCC(=O)Nc1cccc(-c2c[nH]cc2CN(C)CCN)c1 [Compound 5, N-(3-(4-(((2-Aminoethyl)(methyl)amino)methyl)-1H-pyrrol-3-yl)-phenyl)propionamide] | inhibited H3R2me2a, but was less effective than compound 4 | not cytotoxic | did not reduce | not cytotoxic | neither compound 5 nor compound 7 could modify PRMT6 in a detected level | did not significantly reduce this mark | not cytotoxic | no significant change in IC50 values | > 40 | > 80 | pIC50 against PRMT6 [16]: 7.6 ± 0.1
CC(C)Oc1ccc(-c2c[nH]cc2CN(C)CCN)cc1 [MS023, reference compound] |  |  |  |  |  |  |  |  |  |  | inhibition of H3R2me2a in cells ([1]; at 2 μM (positive control)): effectively inhibited H3R2me2a
